# Test results as given in patent EP1312365A1, “Pteridinones for the treatment of erectile dysfunctions” (Jenapharm GmbH & Co. KG, priority 2001, dated 2003).
# How the values were obtained:
# [1] = test system: cavernosalen glatten Muskulatur; test: Organ bath contraction study with corpus cavernosum strips (phenylephrine-induced contraction); set-up: species or system Kaninchen; settings: for Relaxation der kavernösen, glatten Muskulatur: Kaninchen, phenylephrine-precontracted tissue
# Description: Männliche New Zealand White-Kaninchen (Gewicht: 2,5-3,0 kg) wurden mit CO2-Gas eingeschläfert. Das cavernöse Gewebe wurde beim Sezieren in eine HEPES-gepufferte Lösung (20°C, pH 7,4) eingebracht. Die oben liegende Skelettmuskulatur wurde vorsichtig entfernt, um nicht die darunterliegende Tunica albuginea zu beschädigen. Im proximalen Ende der Tunica wurde ein Schnitt ausgeführt, während sie distal erweitert wurde. Dann wurde das Corpus Cavernosum bilateral aus der Tunica herausgelöst.
# Für menschliches Gewebe wurde das Verfahren zum Ernten von Gewebe vom Institutional Review Board for Human Studies am Boston University Medical Center genehmigt. Cavernöses Gewebe wurde von Patienten erhalten, die sich der Implantation einer Penisprothese zur Behandlung einer erektilen Dysfunktion unterzogen. Im Operationssaal wurden Biopsien der Corpora cavernosa sofort in eisgekühlte (4°C) physiologische Salzlösung gelegt und zum Labor transportiert. Gewebestreifen mit einer Größe von etwa 3 mm x 3mm x 10 mm wurden zugeschnitten und für Organbadstudien gemäß einem ähnlichen Verfahren wie dem nachfolgend beschriebenen präpariert.
# Längsschnitte des Corpus cavernosum wurden in Organbäder gelegt, die folgendes (in mM) enthielten: 118 NaCI, 4,7 KCI, 1,2 KH2PO4, MgSO4, 24,9 NaCO3, 5,5 Glucose, 2,0 Na-Pyruvat und 2,0 CaCl2. Die Streifen cavernöser, glatter Muskulatur wurden mit 2 Gramm gestreckt und mit einem Gemisch von 95% O2 und 5% CO2 während zwei Stunden äquilibriert, bevor mit dem Versuchsverfahren begonnen wurde. Dann wurden die Gewebe an Kraftwandler (Grass FT03) angeschlossen. Die Spannungsmessungen wurden mit einem MP100-System und der AcqKnowledge-Software (Biopac) digital aufgezeichnet.
# Die Gewebe wurden mit Indomethacin (10 µM) vorbehandelt, um Cyclooxygenaseeffekte zu beseitigen. Durch Zugabe von Phenylephrin (10 µM) zu den Organkammern wurden Kontraktionen induziert. Nachdem die Phenylephrin-induzierte Kontraktion einen dauerhaften Zustand erreicht hatte, wurde das tricyclische Pteridinon (Pt) (Fig. 1a und 1b) oder der Stickstoffoxid-Donor S-Nitroso-N-acetylpenicillamin (SNAP) zugegeben (Fig. 2).
# [2] = test system: PDE VI; test: PDE subtype profile: inhibition of isolated PDE isozyme; format: biochemical; settings: source of PDE VI not given
# Description: (§1) Die PDE-Aktivität wurde in einem Reaktionsmedium gemessen, das 40 mM Tris-HCI (pH 8,0), 5 mM MgCl2, 1 mM Dithiothreitol und 0,2 µM [^3H] cyclisches GMP enthielt. Das tricyclische Pteridinon wurde in DMSO (2,5%) gelöst. Bei dieser DMSO-Konzentration wurde die Enzymaktivität zu etwa 10% inhibiert. Die IC50-Werte für das tricyclische Pteridinon wurden anhand von Dosis-Wirkungs-Kurven bestimmt, bei denen die Konzentration im Bereich von 1 nM bis 10 µM (ganze log-Inkremente) lag. Für jedes untersuchte PDE-Isozym wurden mindestens zwei IC50-Bestimmungen an verschiedenen Tagen durchgeführt.
# [3] = Pharmacokinetic experiments, plasma levels after oral administration; format: in vivo; settings: species not given
# [4] = test system: Macaca fascicularis-Affen; test: Monkey model of male erectile dysfunction (intracavernous pressure, blood pressure); format: in vivo; settings: for Maximaler Druck / Mittlerer Druckanstieg: intracavernous bolus 0,5 ml, given after nitroprusside response returned to baseline
# Description: Das tricyclische Pteridinon wurde Macaca fascicularis-Affen als intracavernöse Bolusinjektion (0,5 ml, mit 0,5 ml Kochsalzlösung-Flush) verabreicht. Die Auswirkungen auf den intracavernösen Druck wurden mitlaufend gemessen und mit denen des Stickstoffoxid-Donors Nitroprussid (SNP oder NP) verglichen. Stickstoffoxid induziert eine Erektion, indem es als Guanylatcyclase-Agonist wirkt.
# Die abschließende Reihe der in vivo-Versuche an Affen untersuchte die Effekte des tricyclischen Pteridinon bei intravenöser Verabreichung (1 und 3 mg/kg) 15 Minuten vor der intracavernösen Injektion von Nitroprussid (10^-5 M). Diese Vorgehensweise wurde gewählt, um zu bestimmen, ob die "systemische Verabreichung" von tricyclischem Pteridinon die Nitroprussid-induzierte, erektile Reaktion wirksam verstärkt.
# [5] = test system: Katzen; test: Cat model of male erectile dysfunction (intracavernous pressure, systemic blood pressure); format: in vivo
# Description: Geschlechtsreife männliche Katzen (Körpergewicht 2,9-4,6 kg) wurden mit α-Chloralose (60 mg/kg i.m.) narkotisiert. Dann wurden Hartmansche Lösung und eine Dextroselösung bei […] über die antekubitale Vene infundiert. Die Beatmung wurde über eine an einen Tierventilator (Harvard Apparatus Ltd., Boston MA) angeschlossene Tracheotomie sichergestellt. Pancuroniumbromid (0,3 ml/kg) wurde als Muskelrelaxans infundiert. Nach Bedarf wurden zusätzliche Dosen von α-Chlorase und Pancuroniumbromid gegeben, um ein gleichbleibendes Anästhesie-Niveau beizubehalten.
# In der inneren Carotid-Arterie wurde ein zentraler Katheter gelegt, um eine Arterienblut-Gasanalyse (ABGA) durchzuführen und den systemischen Blutdruck in der Arterie aufzuzeichnen. Eine 23 G-Nadel wurde in das Corpus cavernosum eingeführt, um die Veränderungen des intracavernösen Drucks (ICP) zu messen. Sowohl der systemische, arterielle Blutdruck als auch der ICP wurden mittels eines Druckwandlers (Gilson P23XL-1, physiologischer Druckwandler, Ohmeda, Kanada), der an einen Polygraphen (Grass Model 7D, Quincy, MA, USA) angeschlossen war, gemessen. Zur lokalen Injektion von Versuchsverbindungen wurde ein Zweig der inneren Pudendalarterie auf einer Seite mit einem länglichen Polyethylenschlauch (PE-10-Schlauch, Original-Innendurchmesser 0,25 mm, Außendurchmesser 0,76 mm) retrograd mikrokanüliert. Dann wurden zur Verabreichung der Wirkstoffe (jeweils 0,1 ml) in den Penis die übrigen Zweige, bis auf die Penisarterie, ligiert. Mit geeigneten Ventilator-Einstellungen (z.B. Tidalvolumen 10 ml/kg; Atmungsrate 15-20/Min.) wurde eine Normoxie (pH > 7,25, PO2 > 60 mmHg, PCO2 < 40 mmHg) erzeugt und mit ABGA und einem mit der ausgeatmeten Luft verbundenen Capnometer (Modell 2200, Traverse Medical Monitors, USA) überprüft. Um die Volumeneffekte von Lösungsmitteln zu beurteilen, wurden destilliertes Wasser und normale Kochsalzlösung intraarteriell infundiert. Intraarterielles Wasser und Kochsalzlösung hatten selbst bei einem Bolus keinen Effekt auf den intracavernösen Druck (ICP).
# Die Lösungen des tricyclischen Pteridinon wurden unter Verwendung einer 1%igen 6N HCI- und einer 5%igen DMSO-Lösung hergestellt. Papaverin (50 mg) + Phentolamin (5 mg) (Bimix) wurde in 5 ml mit 5% DMSO/Rest Kochsalzlösung hergestellt. Jedes Arzneimittel wurde als Bolus von 0,1 ml und 0,05 ml heparinisierter Kochsalzlösung zum Spülen infundiert.
# Der Grund-ICP, ΔICP (d.h. die reine Veränderung des Grund-ICP) und Veränderungen des systemischen Blutdrucks wurden nach der intraarteriellen Injektion aufgezeichnet. Alle Daten wurden mittels eines Student's t-Test beurteilt, wobei p<0,05 als signifikant galt. Die Daten priapischer Episoden wurden bei den Berechnungen ausgeschlossen.
# [6] = test system: PDE IV; test: PDE subtype profile: inhibition of isolated PDE isozyme; format: biochemical, Ratten; settings: PDE IV aus Rattenniere
# Description: (§2) Die verschiedenen Formen cyclischer Nukleotidphosphodiesterasen (PDE) wurden mit üblichen Methoden isoliert. Die PDE-lsozyme wurden aus den folgenden Quellen isoliert: PDE I und PDE V aus Rinder-Aorta, PDE II aus dem linken Ventrikel von Ratten, PDE IV aus Rattenniere und PDE III aus menschlichen Plättchen.
# as §1
# [7] = test system: PDE I; test: as above; format: biochemical; settings: PDE I aus Rinder-Aorta; 0,2 µM [3H] cyclisches GMP
# Description: as §2, §1
# [8] = target: T1, PDE V (Bos taurus, UniProt Q28156); test: as above; format: biochemical; settings: PDE V aus Rinder-Aorta
# T1 construct: Die PDE-lsozyme wurden aus den folgenden Quellen isoliert; from tissue; host or cells: bovine aorta
# Description: as §2, §1
# [9] = target: T2, PDE III (Homo sapiens, UniProt Q14432); test: as above; format: biochemical; settings: PDE III aus menschlichen Plättchen
# T2 construct: Die PDE-lsozyme wurden aus den folgenden Quellen isoliert; from tissue; host or cells: human platelets
# T2 sequence (Q14432 whole entry): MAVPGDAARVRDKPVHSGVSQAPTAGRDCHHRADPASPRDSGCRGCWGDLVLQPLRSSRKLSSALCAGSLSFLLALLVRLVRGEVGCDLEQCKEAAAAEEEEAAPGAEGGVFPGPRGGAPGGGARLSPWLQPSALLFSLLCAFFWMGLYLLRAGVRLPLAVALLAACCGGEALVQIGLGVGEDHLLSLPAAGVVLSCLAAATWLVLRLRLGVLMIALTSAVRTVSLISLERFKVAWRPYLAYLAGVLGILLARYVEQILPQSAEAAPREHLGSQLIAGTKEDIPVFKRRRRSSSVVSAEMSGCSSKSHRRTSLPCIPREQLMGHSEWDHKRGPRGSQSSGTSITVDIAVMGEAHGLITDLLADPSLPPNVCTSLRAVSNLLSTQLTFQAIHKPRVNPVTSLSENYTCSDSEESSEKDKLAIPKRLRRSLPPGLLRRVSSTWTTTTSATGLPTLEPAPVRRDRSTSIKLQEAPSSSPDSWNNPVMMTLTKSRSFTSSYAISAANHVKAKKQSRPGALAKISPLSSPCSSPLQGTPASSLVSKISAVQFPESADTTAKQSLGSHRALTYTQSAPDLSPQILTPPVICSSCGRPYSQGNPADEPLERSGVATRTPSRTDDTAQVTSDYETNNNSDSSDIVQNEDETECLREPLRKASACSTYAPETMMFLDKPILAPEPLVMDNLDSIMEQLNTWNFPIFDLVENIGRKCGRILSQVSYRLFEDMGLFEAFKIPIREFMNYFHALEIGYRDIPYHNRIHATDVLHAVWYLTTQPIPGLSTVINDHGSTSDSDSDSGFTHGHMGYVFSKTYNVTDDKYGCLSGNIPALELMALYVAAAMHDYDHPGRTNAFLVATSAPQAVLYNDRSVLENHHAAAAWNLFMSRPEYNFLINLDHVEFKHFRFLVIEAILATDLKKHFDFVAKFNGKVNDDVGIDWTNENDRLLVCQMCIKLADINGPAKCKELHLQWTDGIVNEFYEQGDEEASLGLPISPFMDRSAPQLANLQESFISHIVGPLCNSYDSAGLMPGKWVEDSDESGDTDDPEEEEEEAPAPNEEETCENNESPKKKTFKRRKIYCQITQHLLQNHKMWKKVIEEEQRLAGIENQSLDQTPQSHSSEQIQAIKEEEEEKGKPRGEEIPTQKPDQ
# Description: as §2, §1
# [10] = test system: Macaca fascicularis-Affen; test: Monkey model of male erectile dysfunction (intracavernous pressure, blood pressure); format: in vivo
# [11] = i.v. bolus injection 0,5 mg/Tier
compound,measurement,setting,value
"CC(=O)N[C@H](C(=O)O)C(C)(C)SN=O [SNAP, S-Nitroso-N-acetylpenicillamin, reference compound]","Relaxation der kavernösen, glatten Muskulatur",[1]; Fig. 2,unmittelbare Relaxation
"CCc1nc(C)cn1-c1nc(C(C)C)c2[nH]c(=O)c3c(C)nc(CC)n3c2n1 [tricyclisches Pteridinon, 9-Ethyl-2-(2-ethyl-4-methyl-1H-imidazol-1-yl)-7-methyl-4-(2-propyl)imidazo[5,1-h]pteridin-6(5H)on]",IC50,[2],56 nM
same,Zeit bis zu signifikanten Plasmamengen nach oraler Verabreichung,[3],≤ 30 Minuten
same,Anstieg des cavernösen Drucks,"[4]; Affen, given before administration of nitroprusside",keinen anhaltenden Anstieg
same,intracavernöser Druck nach systemischer Verabreichung,"[4]; Affen, i.v. 1 and 3 mg/kg, Fig. 5",wirksam erhöht
same,Blutdrucksenkung,"[4]; Affen, i.v. administration, 1 and 3 mg/kg",20-40 mmHg
same,Maximaler Druck,"[4]; Affen, 10^-4 Molar",165 (1) cm H2O
same,Mittlerer Druckanstieg,"[4]; Affen, 10^-4 Molar",62 (1) Δ cm H2O
same,Maximaler Druck,"[4]; Affen, 10^-5 Molar",103 (3) cm H2O
same,Mittlerer Druckanstieg,"[4]; Affen, 10^-5 Molar",51 (3) Δ cm H2O
same,Maximaler Druck,"[4]; Affen, 10^-6 Molar",95 (2) cm H2O
same,Mittlerer Druckanstieg,"[4]; Affen, 10^-6 Molar",41 (2) Δ cm H2O
same,Adverse finding after pretreatment,"[4]; one monkey, pretreatment 3 mg/kg followed by nitroprusside 10^-5 M i.c.",Priapismus
same,Erektionen steif (visuelle Bestimmung),"[5]; 0,1 mg/Tier",nicht als steif
same,Erektionen steif,"[5]; higher doses (Fig. 3: 0,3 and 0,5 mg/Tier)",steifen Erektion
same,Dauer der vorübergehenden Spitzenabfälle des systemischen Arterienblutdrucks,[5]; [11],≤ 5 Minuten
same,Spitzenabfälle des systemischen Arterienblutdrucks,[5]; [11],"15,8 mmHg"
same,Anstieg des ICP,"[5]; local intra-arterial administration, 0,1 mg/Tier, p<0,01","5,5 mmHg"
same,"Dosis, die den ICP erhöht","[5]; local intra-arterial injection, 0,1 ml bolus, initial dose-finding study","≥ 0,0038 mg"
same,"ICP, Dosisabhängigkeit","[5]; local intra-arterial injection, Fig. 3",erhöhte in dosisabhängiger Weise signifikant den ICP
same,IC50,[6],74 nM
same,IC50,[7],5.8 nM
same,IC50,[8],35 nM
same,IC50,[9],> 10000 nM
same,"Relaxation der kavernösen, glatten Muskulatur",[1]; Fig. 2,unmittelbare Relaxation
same,IC50,"[1]; Phenylephrin 10 µM, Indomethacin 10^-5 M, Fig. 1 (Kaninchen, and tissue of impotent patients), read-out: IC50-Wert für die Inhibierung der Phenylephrin-induzierten Kontraktion",~1000 nM
same,Stärke im Vergleich zu SNAP,"[1]; in vitro model, Fig. 2",stärker
same,Dauer des Nitroprussid-induzierten Anstiegs des cavernösen Drucks,[10]; 1 mg/kg given simultaneously with nitroprusside,verdoppelte
same,Dauer des Nitroprussid-induzierten Anstiegs des cavernösen Drucks,[10]; 3 mg/kg given simultaneously with nitroprusside,nahezu verdreifachten
